Reference: patent EP2878592B1, “SYNTHESIS OF AMIDE DERIVATIVES OF SOME NONSTEROIDAL ANTIINFLAMMATORY DRUGS AS POTENTIAL PRO-DRUGS” (Kücükgüzel, Ilkay, priority 2013, dated 2015)

Legend:
[1] = Partition coefficient (log P) study, chloroform / buffer, HPLC; type: physicochemical; details: 37°C, 24 hours
Method: 20 mg of amide compound is dissolved in 20 ml of chloroform. 10 mL of this mixture is drawn out (divided into two). This 10 ml of mixture is added to 20 ml with pH 1.2 buffer solution. Likewise the other 10 ml of mixture is added to 20 ml with pH 6.8 buffer solution. The tubes placed in a 37°C incubator are mixed for 24 hours.
After 24 hours the chloroform phase was removed and transferred to separate tubes. The chloroform is evaporated. After evaporation of chloroform, 10 mL of ACN is added and thoroughly mixed. 0.1 ml of the sample is taken out of the mixture with ACN and this sample is added to 10 ml with the mobile phase (S1, S2, S3) (Cn=1ug/ml)
The standard samples used in this study were prepared according to the method of preparation of standard samples given above.
• HPLC Column Type: ACE C18 reverse phase. • Flow Rate: 1 ml/min. • Wavelength: 210 nm

[2] = compared with ibuprofen, equimolar doses; cited from earlier work
[3] = compared with the ibuprofen molecule; cited from earlier work
[4] = pH 1.2 buffer solution / chloroform
[5] = pH 6.8 buffer solution / chloroform

Log P (Experimental result) [1, 4]	Log P (Experimental result) [1, 5]	Structure (SMILES)	effect in relieving edema and in lowering fever [2]	gastrointestinal and acute toxicities [3]
-0.05	+0.05	C[C@H](C(=O)NC(CO)(CO)CO)c1cccc(C(=O)c2ccccc2)c1 [Compound 1b, (+)-(2S)-2-(3-Benzoylphenyl)-N-[1,3-dihydroxy-2-(hydroxymethyl)propan-2-yl]propanamide]	–	–
-0.14	-0.95	CC(C(=O)NC(CO)(CO)CO)c1ccc(-c2ccccc2)c(F)c1 (centres unmarked) [Compound 3b, N-[1,3-Dihydroxy-2-(hydroxymethyl)propan-2-yl]-2-(2-fluorobiphenyl-4-yl)propanamide]	–	–
–	–	COc1ccccc1OC(=O)C(C)c1ccc(CC(C)C)cc1 (centres unmarked) [guiacol ester of ibuprofen]	same effect	much lower
-0.12	-0.41	CC(C)Cc1ccc(C(C)C(=O)NC(CO)(CO)CO)cc1 (centres unmarked) [Compound 2b, N-[1,3-dihydroxy-2-(hydroxmethyl)propan-2-yl]-2-(4-isobutylphenyl)propanamide]	–	–
